{"source": "patent US20090233957A1", "about": "“(-)-BELOXEPIN AND METHODS FOR ITS SYNTHESIS AND USE” (priority 2008, published 2009)", "key": {"[1]": {"test_system": "rat 50° C. hot plate model", "assay": "rat 50° C. hot plate assay", "type": "in vivo", "description": "Protocol. Rats were treated with vehicle, 30 mg/kg IP of (−)-beloxepin, or 30 mg/kg IP of (+)-beloxepin and then were placed on a hot plate (50° C.) 30, 60, or 120 minutes after administration of the vehicle or beloxepin enantiomer. Rats treated with 3 mg/kg SC of morphine and tested 30 min post-treatment were used as a positive control in these experiments."}, "[2]": {"target": "T1, cloned human 5HT2B receptor (Homo sapiens, UniProt P41595)", "T1 construct": "expressed in transfected cells; host or cells: CHO cells", "T1 sequence (P41595 whole entry)": "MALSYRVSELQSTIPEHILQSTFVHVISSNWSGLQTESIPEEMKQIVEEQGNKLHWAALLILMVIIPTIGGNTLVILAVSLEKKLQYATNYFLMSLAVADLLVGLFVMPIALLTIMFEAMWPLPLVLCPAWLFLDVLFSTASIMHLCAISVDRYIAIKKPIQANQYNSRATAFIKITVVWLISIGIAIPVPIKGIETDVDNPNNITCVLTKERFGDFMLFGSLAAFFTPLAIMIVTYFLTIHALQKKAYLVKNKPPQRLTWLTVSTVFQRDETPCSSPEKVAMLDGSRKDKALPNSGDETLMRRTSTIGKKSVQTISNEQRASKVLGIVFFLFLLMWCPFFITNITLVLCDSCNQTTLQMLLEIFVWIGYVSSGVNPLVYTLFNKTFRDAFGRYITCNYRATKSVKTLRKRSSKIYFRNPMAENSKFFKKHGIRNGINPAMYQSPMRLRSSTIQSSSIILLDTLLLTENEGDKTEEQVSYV", "assay": "5HT2B receptor binding assay, [125I]DOI", "settings": "CHO membranes", "description": "For the 5HT2B receptor binding assay, [^125I](±)[…] (DOI) (0.2 nM) was incubated for 15 min at 37° C. with membranes prepared from Chinese hamster ovary cells heterologously expressing the cloned human 5HT2B receptor according to the method of Choi et al., 1994, FEBS Lett 352:393-399. Various concentrations of test compound were added and bound radioactivity was determined by scintillation counting. Non-specific binding was determined in the presence of 1.0 μM unlabeled DOI. The Ki value for the test compound was determined using standard methods."}, "[3]": {"target": "NET (rat hypothalamus synaptosomes) (Rattus norvegicus, UniProt Q63380)", "sequence (Q63380 1-617)": "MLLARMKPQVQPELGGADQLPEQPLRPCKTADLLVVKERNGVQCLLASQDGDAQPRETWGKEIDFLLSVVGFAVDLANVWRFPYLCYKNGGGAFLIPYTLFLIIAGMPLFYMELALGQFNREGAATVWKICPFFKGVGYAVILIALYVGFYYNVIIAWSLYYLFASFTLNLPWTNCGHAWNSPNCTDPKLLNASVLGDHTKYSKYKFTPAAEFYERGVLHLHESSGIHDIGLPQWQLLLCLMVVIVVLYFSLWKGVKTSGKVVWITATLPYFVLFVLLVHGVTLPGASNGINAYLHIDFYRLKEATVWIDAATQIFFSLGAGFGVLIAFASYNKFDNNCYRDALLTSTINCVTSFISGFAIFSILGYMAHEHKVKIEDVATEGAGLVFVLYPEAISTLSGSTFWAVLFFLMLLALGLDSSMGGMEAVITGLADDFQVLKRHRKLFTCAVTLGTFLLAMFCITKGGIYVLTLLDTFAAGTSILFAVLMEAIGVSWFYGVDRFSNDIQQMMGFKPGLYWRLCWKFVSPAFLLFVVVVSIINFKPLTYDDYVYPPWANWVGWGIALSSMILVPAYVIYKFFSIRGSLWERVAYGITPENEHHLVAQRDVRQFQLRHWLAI", "assay": "NE uptake inhibition assay, [3H]norepinephrine into synaptosomes", "type": "biochemical", "settings": "20 min 37° C., read-out: NET IC50 (norepinephrine reuptake inhibition)"}, "[4]": {"target": "T2, cloned human 5HT2A receptor (Homo sapiens, UniProt P28223)", "T2 construct": "expressed in transfected cells; host or cells: HEK-293 cells", "T2 sequence (P28223 whole entry)": "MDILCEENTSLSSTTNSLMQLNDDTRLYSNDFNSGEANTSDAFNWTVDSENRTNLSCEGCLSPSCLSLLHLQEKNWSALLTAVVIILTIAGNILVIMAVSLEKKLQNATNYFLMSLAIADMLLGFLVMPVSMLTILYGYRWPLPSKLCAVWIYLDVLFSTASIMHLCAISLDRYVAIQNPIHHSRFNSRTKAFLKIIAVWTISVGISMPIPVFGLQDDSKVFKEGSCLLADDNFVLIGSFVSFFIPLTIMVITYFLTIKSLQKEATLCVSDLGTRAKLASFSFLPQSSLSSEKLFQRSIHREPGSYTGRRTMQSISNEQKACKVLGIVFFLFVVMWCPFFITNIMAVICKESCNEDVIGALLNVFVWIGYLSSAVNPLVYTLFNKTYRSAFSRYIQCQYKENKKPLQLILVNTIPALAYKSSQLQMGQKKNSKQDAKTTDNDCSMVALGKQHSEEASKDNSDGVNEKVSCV", "assay": "5HT2A receptor binding assay, [3H]ketanserin", "settings": "HEK-293 membranes", "description": "For the 5HT2A receptor binding assay, [^3H]ketanserin (0.5 nM) was incubated for 60 min at 22° C. with membranes prepared from HEK-293 cells heterologously expressing the cloned human 5-HT2A receptor according to the method of Bonhaus et al., 1995, Brit. J. Pharmacol. 115:622-628. Various concentrations of test compound were added and bound radioactivity was determined by scintillation counting. Non-specific binding was determined in the presence of 1.0 μM unlabeled ketanserin. The Ki value for the test compound was determined using standard methods."}, "[5]": {"target": "T3, cloned human 5HT2C receptor (Homo sapiens, UniProt P28335)", "T3 construct": "expressed in transfected cells; host or cells: CHO cells", "T3 sequence (P28335 33-458)": "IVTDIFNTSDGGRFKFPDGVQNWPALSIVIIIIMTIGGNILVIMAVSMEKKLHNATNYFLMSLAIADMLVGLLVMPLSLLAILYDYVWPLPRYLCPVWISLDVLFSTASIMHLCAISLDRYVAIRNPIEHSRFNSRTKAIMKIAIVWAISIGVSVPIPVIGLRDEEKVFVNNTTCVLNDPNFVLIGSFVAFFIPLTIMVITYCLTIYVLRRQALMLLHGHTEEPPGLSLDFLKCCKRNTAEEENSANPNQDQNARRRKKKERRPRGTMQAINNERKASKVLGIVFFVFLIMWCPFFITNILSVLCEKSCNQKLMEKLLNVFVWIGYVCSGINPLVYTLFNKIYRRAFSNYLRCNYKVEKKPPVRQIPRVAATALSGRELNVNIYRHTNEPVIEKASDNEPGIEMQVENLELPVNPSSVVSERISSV", "assay": "5HT2C functional assay, intracellular Ca2+ in CHO cells", "type": "cell-based", "description": "(§1) Agonist effects at the 5HT2C receptor were assessed by incubation at 22° C. of a series of concentrations of test compound with intact CHO cells heterologously expressing the cloned human 5HT2C receptor and measuring intracellular [Ca^2+] by fluorimetry according to the method of Jerman et al., 2001, Eur. J. Pharmacol. 414:23-30. Antagonist effects were assessed by the ability of a series of concentrations of test compound to block the increase in intracellular [Ca^2+] that occurred in the presence of 3.0 nM serotonin under the same conditions. EC50 and IC50 values were determined using standard methods."}, "[6]": {"target": "T2, cloned human 5HT2A receptor", "assay": "5HT2A functional assay, intracellular Ca2+ in HEK-293 cells", "type": "cell-based", "description": "as §1, with “5HT2A” for “5HT2C”, “HEK-293” for “CHO”, “414:23-30).” for “414:23-30.”"}, "[7]": {"settings": "antagonist mode, vs 3.0 nM serotonin"}}}
{"smiles": "Cc1cccc2c1Oc1ccccc1C1(O)CCN(C)CC21", "note": "(single isomer, unassigned; (+)) [(+)-beloxepin]", "values": [{"measurement": "antinociceptive activity", "setting": "[1]; 30 mg/kg IP, 30, 60, 120 min", "result": "no antinociception was observed"}, {"measurement": "% MPE values (range)", "setting": "[1]; 30 mg/kg IP, 30, 60 or 120 min", "result": "10-17%"}, {"measurement": "Ki", "setting": "[2]", "result": 170, "unit": "nM"}, {"measurement": "IC50", "setting": "[3]", "result": 1200, "unit": "nM"}, {"measurement": "Ki", "setting": "[4]", "result": 97, "unit": "nM"}, {"measurement": "5HT2C functional activity type", "setting": "[5]", "result": "antagonist"}, {"measurement": "IC50", "setting": "[5]; [7]", "result": 7.2, "unit": "µM"}, {"measurement": "5HT2A functional activity type", "setting": "[6]", "result": "antagonist"}, {"measurement": "IC50", "setting": "[6]; [7]", "result": 1600, "unit": "nM"}]}
